According to patent publication US8993619B2, “Cyclic bridgehead ether DGAT1 inhibitors” (Novartis AG, priority 2012, dated 2015):

Key:
[1] = molecular target: T1, human (His)6DGAT1 (Homo sapiens, UniProt O75907); assay: DGAT1 Inhibition Assay; assay type: biochemical; settings: membrane preparation from Sf9 cells overexpressing human (His)6DGAT1; LC/MS/MS readout
T1 construct: made in house; host or cells: Sf9 insect cells (membrane preparation)
T1 sequence (O75907 1-488): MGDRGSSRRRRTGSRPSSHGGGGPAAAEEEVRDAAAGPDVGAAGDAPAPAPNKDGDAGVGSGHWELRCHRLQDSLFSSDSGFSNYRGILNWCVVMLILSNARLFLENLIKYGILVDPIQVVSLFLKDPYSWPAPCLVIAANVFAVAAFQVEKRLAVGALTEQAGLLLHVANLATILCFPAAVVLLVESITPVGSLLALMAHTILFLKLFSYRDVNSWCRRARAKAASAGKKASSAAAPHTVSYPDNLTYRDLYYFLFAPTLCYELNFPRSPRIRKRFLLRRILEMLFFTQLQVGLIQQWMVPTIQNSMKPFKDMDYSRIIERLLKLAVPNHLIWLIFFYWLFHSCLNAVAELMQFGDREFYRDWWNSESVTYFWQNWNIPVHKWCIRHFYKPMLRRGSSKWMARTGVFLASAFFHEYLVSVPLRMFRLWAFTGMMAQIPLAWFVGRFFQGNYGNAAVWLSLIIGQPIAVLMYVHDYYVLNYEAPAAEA
Description: The enzyme preparation used in this assay is a membrane preparation from Sf9 cells overexpressing human (His)6DGAT1. During all steps samples were chilled to 4° C. Sf9 cells expressing human (His)6DGAT1 were thawed at room temperature and re-suspended at a 10:1 ratio (mL buffer/g of cells) in 50 mM HEPES, 1× Complete Protease Inhibitor, pH 7.5. The re-suspended pellet was homogenized for 1 min using a Brinkman PT 10/35 homogenizer with a 20 mm generator. Cells were lysed using Avestin Emulsiflex (chilled to 4° C.) at 10000-15000 psi. Lysate was centrifuged at 100,000×g for 1 h at 4° C. Supernatant was removed and pellets were re-suspended in 50 mM HEPES, 1× Complete Protease Inhibitor, pH 7.5 at ⅙ the volume of supernatant. Re-suspended pellets were pooled and homogenized with 10 strokes of a Glas-Col motor driven teflon pestle on setting 70. The protein concentration of the membrane preparation was quantified using BCA protein assay with 1% SDS. The membrane preparation was aliquoted, frozen on dry ice, and stored at −80° C.
For 50 mL, 25 mL of 0.2 M HEPES stock buffer, 0.5 mL of 1 M MgCl2 ([…]), and 24.5 mL of milli-Q H2O are added to the 55 mL Wheaton Potter-Elvehjem homogenizer. Enzyme preparation (0.1 mL) is added to buffer and the mixture is homogenized with 5 strokes on ice using the Glas-Col variable speed homogenizer system on setting 70.
For 50 mL, 0.5 mL 10 mM diolein is added to 9.5 mL of EtOH in a 50 mL Falcon screw cap conical centrifuge tube. Five mL of 10 mM sodium acetate pH 4.5 is added followed by 0.5 mL of 10 mM oleoyl-CoA. Finally, the remaining 4.5 mL of 10 mM sodium acetate pH 4.5 is added followed by 30 mL of milli-Q H20. The solution should be gently agitated by hand to induce mixing. The final concentrations of EtOH and sodium acetate are 20% and 2 mM, respectively.
Dry compounds are dissolved in the appropriate volume of DMSO to a final concentration of 10 mM. […] All dilutions are performed in DMSO in a Greiner 384-well microplate. • 1. 2 μL of compound in DMSO is added to the appropriate wells. […] 25 μL of enzyme mix is added to all wells and plate(s) are incubated for 10 min at RT. • 3. […] Plate(s) are vortexed using Troemner multi-tube vortexer (setting 7 for 10 sec). • 4. 25 μL of substrate mix is added to all wells. Plate(s) are vortexed using Troemner multi-tube vortexer (setting 7 for 10 sec). Plate(s) are incubated for 30 min at RT. • 5. 10 μL of 20% acetic acid quench is added to all wells. Plate(s) are vortexed using Troemner multi-tube vortexer (setting 7 for 10 sec). • 6. 50 μL of 1-butanol w/ glyceryl tripalmitoleate internal standard is added to all wells. • 7. Plate(s) are sealed with super pierce strong plate sealer using the thermo-sealer. • 8. Plate(s) are vortexed using Troemner multi-tube vortexer (setting 10 for 5 min). • 9. Plate(s) are centrifuged at 162×g (1000 rpm for GH-3.8 rotor) for 5 min using Beckman GS-6R tabletop centrifuge.
Where indicated, tripalmitolein was used as an internal standard to control for instrument variation.
Column: Thermo Betabasic 4, 2.1×20 mm
Solvent: 10 mM Ammonium Formate, 0.1% Formic Acid, 2% water, 98% Methanol
Isocratic run 0.5 ml per minute
Data is converted to % inhibition prior to curve fitting using the following equation: […]

[2] = molecular target: T2, DGAT1 in C2C12 cells (Mus musculus, UniProt Q9Z2A7); assay: Cellular assay to measure activity of DGAT1 inhibitors in mammalian cells (C2C12); assay type: cell-based; settings: C2C12 mouse skeletal muscle cells, 250 μM oleate, 2 h, LC/MS readout
T2 construct: endogenous in cells; host or cells: C2C12 mouse skeletal muscle cells
T2 sequence (Q9Z2A7 1-498): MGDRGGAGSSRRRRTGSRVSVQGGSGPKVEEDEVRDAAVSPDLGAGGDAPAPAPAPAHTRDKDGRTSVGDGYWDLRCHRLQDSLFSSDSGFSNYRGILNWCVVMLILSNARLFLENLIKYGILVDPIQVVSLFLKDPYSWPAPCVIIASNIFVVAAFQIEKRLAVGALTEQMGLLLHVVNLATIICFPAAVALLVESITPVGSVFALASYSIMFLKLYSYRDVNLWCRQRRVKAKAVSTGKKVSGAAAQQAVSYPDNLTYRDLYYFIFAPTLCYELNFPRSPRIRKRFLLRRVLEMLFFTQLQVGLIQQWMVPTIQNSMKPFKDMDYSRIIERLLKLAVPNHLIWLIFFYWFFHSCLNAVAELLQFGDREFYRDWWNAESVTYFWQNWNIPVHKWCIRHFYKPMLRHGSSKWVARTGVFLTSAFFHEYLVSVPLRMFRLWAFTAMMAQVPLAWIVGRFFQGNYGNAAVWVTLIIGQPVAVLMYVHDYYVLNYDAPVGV
Description: C2C12 cells are an immortal mouse skeletal muscle cell line showing an 8-fold enrichment form DGAT1 versus DGAT2. C2C12 cells were routinely cultured in 150 cm2 flasks with DMEM (25 mM glucose) containing 10% FBS, 4 m M L-glutamine, 100 U/ml penicillin and 100 μg/ml streptomycin (30 ml per flask), at 37° C., 5% CO2 and 95% humidity. All studies were performed on cells at passage 10 or less.
C2C12 cells were seeded in 96-well plates in DMEM containing […] glucose and 10% FBS, 18 h (at 37° C.) prior to assay (all wells of the plate are used). […] Compounds were added at 1:3 dilution, 11 points and DMSO control, the starting concentration was usually 40 μM. Each point was dosed in quadruplicate allowing 2 compounds to be dosed per plate. The medium was removed at the end of the incubation and 200 μl/well of 1-butanol added. The 1-butanol contained an internal standard, tripalmitolein (2 μM). The plates were sealed with an adhesive plate sealer and left at room temperature for at least 30 min, then spun down at 209×g for 5 min.
Butanolic extracts were transferred to 384-well LC-MS plates (80 μl/well) and the plate heatsealed with a foil plate sealer. The 384-well plates containing sample were spun down at 209×g for 5 min prior to loading on the LC-MS.
Where indicated, tripalmitolein was used as an internal standard to control for instrument variation. HPLC conditions as above.

| SMILES | IC50 [1] | IC50 [2] |
| --- | --- | --- |
| O=C(O)CC12CCC(c3ccc(-c4ccc(Nc5nnc(C6CCC6)s5)cn4)cc3)(CC1)CO2 [Example 3, 2-(4-(4-(5-((5-cyclobutyl-1,3,4-thiadiazol-2-yl)amino)pyridin-2-yl)phenyl)-2-oxabicyclo[2.2.2]octan-1-yl)acetic acid] | 53.5 nM | 15 nM |
| CC(C)(C)c1nnc(Nc2ccc(-c3ccc(C45CCC(CC(=O)O)(CC4)OC5)cc3)nc2)o1 [Example 1, 2-(4-(4-(5-(5-tert-butyl-1,3,4-oxadiazol-2-ylamino)pyridin-2-yl)phenyl)-2-oxabicyclo[2.2.2]octan-1-yl)acetic acid] | 345 nM | 288 nM |
| CC(C)(C)c1cnc(Nc2ccc(-c3ccc(C45CCC(CC(=O)O)(CC4)OC5)cc3)nc2)o1 [Example 14, 2-(4-(4-(5-((5-(tert-butyl)oxazol-2-yl)amino)pyridin-2-yl)phenyl)-2-oxabicyclo[2.2.2]octan-1-yl)acetic acid] | 130 nM | 108 nM |
| CC(C)Cc1nnc(Nc2ccc(-c3ccc(C45CCC(CC(=O)O)(CC4)OC5)cc3)cc2)o1 [Example 16, 2-(4-(4′-((5-isobutyl-1,3,4-oxadiazol-2-yl)amino)-[1,1′-biphenyl]-4-yl)-2-oxabicyclo[2.2.2]octan-1-yl)acetic acid] | 60 nM | 38 nM |
